In assay [1] the target is T1, hSMOX in A549 cells (Homo sapiens, UniProt Q9NWM0).
T1 construct: human lung carcinoma cells (A549) which endogenously produce high levels of hSMOX; endogenous in cells; host or cells: A549 human lung carcinoma cells
The assay can be described thus: CETSA in A549 cells with hSMOX AlphaLISA detection. The class given is cell-based. To be noted: A549 intact cells, 54 °C, vs vehicle. An excerpt: To determine whether JNJ-1289 would be able to target hSMOX in a cellular environment, we developed a Cellular Thermal Shift Assay (CETSA®)[52] using human lung carcinoma cells (A549) which endogenously produce high levels of hSMOX[53]. CETSA evaluates the binding of low molecular weight compounds to target proteins directly in intact cells by taking advantage of the increased resistance to thermal denaturation that ligand binding can confer on proteins. Detection of the relative amounts of remaining soluble protein using AlphaLISA after incubation of A549 cells at the optimal melting temperature of hSMOX for CETSA (54 °C) was performed in the presence or absence of hSMOX ligands.
A549 (adenocarcinoma human alveolar basal epithelial cells) express relatively high levels of hSMOX. Their use has been widely reported in the literature for the investigation of the polyamine catabolic pathway. In our case, using hSMOX high-expressing cells with CETSA and AlphaLISA systems provided the optimal platform for screening promising small molecules for hSMOX inhibition.
T175 culture flasks with 80–90% confluent cells were used for harvesting after washing two times with PBS followed by the addition of 2 mL TrypLE^TMselect (Gibco) per flask and incubation for 5 min at 37 °C. After dissociation, cells were resuspended in 1 mL culture medium (DMEM (Gibco) with 10% fetal calf serum) and 7 mL PBS. Cells from multiple flasks were pooled, spun down for 5 min at 300 × g, and resuspended to 20 million cells/mL in PBS.
Compounds were dissolved in DMSO to 1 mM stocks. Compound stocks and DMSO controls were added to vials containing 1 mL cell suspension to an end concentration of 10 µM compound and 1% DMSO. Vials were incubated at 37 °C for 1 h while shaking at 125 rpm. Subsequently, vials were cooled on ice and cells were distributed to PCR vials at 20 µL per vial. Transient heating of the cells was performed using a PCR Thermocycler. Vials were heated up to 54 °C for 1 min and then immediately cooled on ice. For temperature range experiments the heating step was repeated increasing the temperature with each next vial with 1 °C. After the cooling step cells were lysed by adding 80 µL 1x AlphaLISA-buffer (Perkin Elmer).
The hSMOX specific AlphaLISA was developed using internally monoclonal rabbit antibody mAb#2 and F(ab’)2 fragment Fab#33 against hSMOX containing a C-terminal His-tag. Both mAb#2 and Fab#33 are specific for hSMOX and selected for their ability to detect hSMOX without interfering with its catalytic activity. Care was taken to confirm that both mAb#2 and Fab#33 bind to distinct (conformational) epitopes. […] After 1 h Alpha signal was read using an Alpha compatible reader. […]

Assay [2] addresses T2, hSMOX (Homo sapiens, UniProt Q9NWM0).
T2 construct: 6xHis (N); TEV cleavage site (N); made in house; host or cells: E. coli BL21(D3), plasmid PET28b(+)
The assay can be described thus: nanoDSF thermal denaturation of purified SMOX. It counts as binding. To be noted: 10 μM SMOX, 100 μM compound. How it is done:
All nanoDSF experiments were performed on a nanoTEMPER Prometheus NT.48 instrument. 10 μM purified SMOX was incubated with 100 μM compound of interest for 10 min and loaded onto the instrument. Thermal denaturation (25–90 °C) was conducted at 1.0 °C/min and 45% intensity. Tm was calculated using PR.ThermControl software as the inflection point of the first derivative of Trp fluorescence during the temperature gradient measured at 350/330 nm. All experiments were performed in triplicate.
In general terms: Differential scanning fluorimetry follows unfolding on heating by fluorescence.

Assay [3] has as its target hPAOX (Homo sapiens, UniProt Q6QHF9). The assay can be described thus: hPAOX HyPerBlu enzyme activity assay (N-AcSpm substrate).
Procedure: The activity of hSMOX, hPAOX, and LSD1 enzymes was measured using the HyPerBlu chemiluminescent reagent for the direct detection of the hydrogen peroxide product. […] Hydrogen peroxide product formation was monitored 30 min after the addition of HyPerBlu on a PHERAstar microplate reader (BMG LABTECH, Cary, NC). All compounds were spotted into the assay plates using Echo acoustic dispensing technology (BeckmanCoulter, Indianapolis, IN). Unless otherwise stated, all reactions were carried out in 384-well assay format.
2 µL/well of 2x substrate was dispensed into the assay plate followed by 2 µL/well of 2x enzyme to initiate the reactions. […] The data were fit to the 4-parameter IC50 equation in GraphPad Prism.
50 nL/well of the twofold inhibitor titrations in 100% DMSO were dispensed into the assay plate followed by the addition of 2.5 µL of 2x hSMOX or 2x hPAOX. A 2 h or 4 h E·I preincubation was carried out at a final concentration of 2 nM or 3 nM hSMOX or 60 pM hPAOX. […] For the 0 h preincubation control, the addition of the substrate solution was made prior to the enzyme solution. […] The data were fit to the 4-parameter IC50 equation in GraphPad Prism.
Briefly, 2.5 µL/well of the twofold substrate solutions prepared in buffer was added to the assay wells followed by 2.5 µL/well of the 2x enzyme to initiate the reactions.
The initial velocity data were fit to the Michaelis-Menten equation in GraphPad Prism. Y=Vmax*X/(Km+X) where Vmax is the maximal velocity, X is the substrate concentration and Km is the Michaelis-Menten constant. The kcat value was determined by dividing Vmax value by the enzyme concentration.
For assay [4], the target named is T2, hSMOX. Put plainly: Progress curve analysis of hSMOX inhibition (on rate, mode of inhibition). It counts as biochemical. How it is done: Reactions were initiated with 3 µL/well of 2x hSMOX and quenched at several time points up to 1 h with 3 µL/well of 25 µM final chlorhexidine. […] Thereafter, 9 µL/well of HyPerBlu reagent was added.
Time point data up to 1 h of reaction time was captured by dispensing 3 µL/well of 25 µM final chlorhexidine to quench the reactions followed by the addition of 9 µL/well HyPerBlu reagent.
Supplementary Fig. 11. Kinetics of JNJ-1289. a, Reaction progress curve analysis of 2 nM […]
Progress curves were monitored for 1h and fit to Eqn S1 at each JNJ-1289 concentration to determine the observed rate constant, kobs.
[P] = Y0 + υ t + υi−υs (1 − e−kobst) (S1) […]
where υi and υs are the initial and steady state velocities, respectively, t is time and kobs represents the observed rate constant. b, Replot of kobs vs. [JNJ-1289] was hyperbolic, which indicated a two-step binding mechanism […]
where I is the inhibitor concentration, k5 and k6 are the estimated forward and reverse rate constants, respectively, and Kiapp is the apparent value of the initial E·I complex. […]
concentrations (7.8 – 1000 µM). Progress curves were monitored for 1h and fit to Eqn S3 at […]
(1 picture or pasted object on this page, not shown here)

In assay [5] the target is T2, hSMOX. The assay can be described thus: Thermal shift assay (ThermoFluor, ANS dye) of purified hSMOX. It counts as binding. To be noted: compared to DMSO control. How it is done:
The fluorescent dye ANS (Molecular Probes) was used to monitor the thermal denaturation of hSMOX. Assay buffer consisting of 10 mM HEPES pH 7.5, 150 mM NaCl, 0.005% P20 was used for all dilutions. The assay was performed in 384-well Hard Shell thin-wall PCR plates (Bio-Rad). 120 nL of ligand was dispensed into the 384-well plate using acoustic dispensing technology followed by the addition of 4 µL of 0.2 mg/ml of hSMOX with 60 µM ANS dye. Replicates of 4% DMSO protein control were set up in each plate. Wells were covered with 1 µL silicone oil. Plates were centrifuged at 1000 rpm for 2 min. The Tm’s were measured using a ThermoFluor instrument. The plates were heated from 30 to 80 °C at a rate of 1 °C per minute. The ΔTm is calculated as the difference between the Tm of each well and that of the average 4% DMSO protein control.

Assay [6] addresses LSD1 (Homo sapiens, UniProt O60341). The assay can be described thus: LSD1 HyPerBlu enzyme activity assay (H3K4me2 peptide substrate).
Assay [7] addresses T2, hSMOX. The assay can be described thus: hSMOX HyPerBlu chemiluminescent enzyme activity assay (H2O2 detection, Spm substrate). The class given is biochemical. To be noted: for time-dependent inhibition of hSMOX: ± 2 h preincubation with enzyme. From the text: Based on this assay, we carried out a high-throughput screening campaign searching for inhibitors of hSMOX against a diverse compound collection.

Assay [8] deals with murine SMOX enzyme. To be noted: value reported for the murine SMOX enzyme; cited from earlier work.
[9] abbreviates: 2.5 nM hSMOX, 30 µM Spm, 1 h reaction, HTS assay conditions, read-out: IC50 hSMOX.

Where “and” joins values, the source holds several entries; their conditions need not be identical. Identical values can stand only once. Entries after “also recorded” stand apart in the source; their conditions may differ. Counter-ions that a name gives are not always drawn. Like-named read-outs stand apart in the source and are kept apart here. Some results are limits rather than exact numbers.

A word on the IC50: it is the concentration at which inhibition is half-maximal. The kon is a measure of how fast the partners come together. Broadly, the koff is a measure of how fast the partners let go of each other. One may read the Km as the substrate concentration at which the rate is half of its maximum.

Chain of hPAOX (Q6QHF9 whole entry): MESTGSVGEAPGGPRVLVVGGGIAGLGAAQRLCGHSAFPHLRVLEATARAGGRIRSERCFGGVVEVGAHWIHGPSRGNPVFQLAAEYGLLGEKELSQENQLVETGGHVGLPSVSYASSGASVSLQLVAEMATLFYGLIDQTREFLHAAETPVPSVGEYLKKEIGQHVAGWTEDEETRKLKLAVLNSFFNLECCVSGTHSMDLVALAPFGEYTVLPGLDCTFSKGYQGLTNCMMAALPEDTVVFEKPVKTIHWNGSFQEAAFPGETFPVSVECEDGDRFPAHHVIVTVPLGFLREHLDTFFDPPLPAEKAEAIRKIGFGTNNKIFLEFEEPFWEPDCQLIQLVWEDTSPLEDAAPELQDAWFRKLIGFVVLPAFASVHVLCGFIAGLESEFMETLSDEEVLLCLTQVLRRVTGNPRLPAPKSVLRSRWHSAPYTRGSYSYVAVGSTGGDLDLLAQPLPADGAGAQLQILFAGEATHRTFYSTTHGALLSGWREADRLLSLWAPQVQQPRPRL
T1 sequence (Q9NWM0 whole entry): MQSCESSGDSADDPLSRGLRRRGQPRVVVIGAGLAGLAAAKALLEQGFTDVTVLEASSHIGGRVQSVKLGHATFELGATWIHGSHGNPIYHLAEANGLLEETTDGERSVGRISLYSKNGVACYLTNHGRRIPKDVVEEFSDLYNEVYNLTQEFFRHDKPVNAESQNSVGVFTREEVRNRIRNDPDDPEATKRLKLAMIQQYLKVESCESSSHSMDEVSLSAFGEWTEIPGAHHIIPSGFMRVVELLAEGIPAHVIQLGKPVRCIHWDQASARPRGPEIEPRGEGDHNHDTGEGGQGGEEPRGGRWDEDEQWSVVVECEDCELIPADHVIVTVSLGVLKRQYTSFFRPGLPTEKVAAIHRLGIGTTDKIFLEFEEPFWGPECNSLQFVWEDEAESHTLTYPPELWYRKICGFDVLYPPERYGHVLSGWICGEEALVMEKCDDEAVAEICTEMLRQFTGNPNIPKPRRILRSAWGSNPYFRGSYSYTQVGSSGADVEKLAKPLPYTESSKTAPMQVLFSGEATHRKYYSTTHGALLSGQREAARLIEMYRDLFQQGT
T2 sequence (Q9NWM0 whole entry): as above

With `CCNCCCNCCCNCCCNCC` [Benspm], in assay [1], the “cellular hSMOX engagement (AlphaLISA signal after heating)” value (“cellular hSMOX engagement” for short) is listed as “absence of cellular hSMOX engagement”.
Regarding `Oc1ccc(Nc2nc(-c3cnc4ccccn34)cs2)cc1` [JNJ-1289, 4-((4-imidazo[1,2,α]pyridine-3-ylthiazol-2-yl)amino)phenol], the “thermal stability of hSMOX (nanoDSF)” value in assay [2] is recorded as “increase the thermal stability of the protein”. For the same molecule, in assay [1], the “cellular hSMOX engagement” value is given as “absence of cellular hSMOX engagement; also recorded: apparent lack of target engagement”. Further, the half-maximal inhibitory concentration (IC50) in assay [3] was more than 2000 nM; in assay [6], more than 2000 nM; in assay [7] (setting [9]), 50 nM; in assay [7] (2 h preincubation, 30 µM Spm, read-out: IC50 hSMOX, 2 h (120 min) enzyme-inhibitor preincubation), 5.5 nM and 8 nM; in assay [7] (IC50 hSMOX, 4 h (240 min) enzyme-inhibitor preincubation, 4 h preincubation, 30 µM Spm), 3.2 nM; in assay [7] (no preincubation, 30 µM Spm, read-out: IC50 hSMOX, 0 h enzyme-inhibitor preincubation), 143 nM and 127 nM. Further, the “time-dependent inhibition of hPAOX” value in assay [3] (± 2 h preincubation with enzyme) was “do not observe time-dependent inhibition”. Besides, in assay [4] (312 nM inhibitor, varying Spm, 2 nM hSMOX), the “mode of inhibition with respect to Spm” value is “competitive hSMOX inhibitor”. Besides, the t1/2 dissociation in assay [4] (from 0.693/koff) came out at 7.7 h. Also, the Ki in assay [4] (read-out: apparent Ki (Ki app) of the initial E·I complex) came to 1400 nM. Besides, in assay [4] (read-out: apparent second-order on-rate constant (kon)), the kon worked out at 2500 M⁻¹ s⁻¹. The dissociation rate constant (koff) in assay [4] (read-out: calculated first-order dissociation rate constant (koff)) is 2.5e-05 s⁻¹. Further, the “ΔTm of hSMOX (thermal shift)” value in assay [5] was found to be 11.3 °C. For the same molecule, the “IC50 hSMOX, 4 h (240 min) enzyme-inhibitor preincubation” value in assay [7] (4 h preincubation, 30 µM Spm) was “within twofold of the results observed using a 120 min pre-incubation”. In addition, the “time-dependent inhibition of hSMOX” value in assay [7] was “selective and time-dependent inhibition; also recorded: time-dependent hSMOX inhibitor”.
As to `C=C=CCNCCCCNCC=C=C` [MDL72527, reference compound], the “thermal stability of hSMOX (nanoDSF)” value in assay [2] is “increase the thermal stability of the protein”. For the same molecule, the “cellular hSMOX engagement” value in assay [1] was “robust cellular hSMOX engagement”.
Turning to `CC(=O)NCCCNCCCCNCCCN` [N-AcSpm, N^1-acetylspermine trihydrochloride], the Km in assay [3] (read-out: Km for hPAOX, substrate, 0.076 nM hPAOX) was found to be 20.1 ± 0.63 µM. In addition, in assay [3] (substrate, 0.076 nM hPAOX), the “kcat hPAOX” value turned out to be 57 s⁻¹.
As to `NCCCNCCCCNCCCN` [Spm, spermine], the “kcat hSMOX” value in assay [7] (substrate, 2.5 nM hSMOX) came out at 4 s⁻¹.
On to `[H]/N=C(\N/C(=N/[H])NCCCCCCNC(=N)NC(=N)Nc1ccc(Cl)cc1)Nc1ccc(Cl)cc1` [chlorhexidine, reference compound], for which the “cellular hSMOX engagement” value in assay [1] was “absence of cellular hSMOX engagement”. Besides, the Ki in assay [8] was 3800 ± 200 nM. In addition, in assay [7], the “inhibition of hSMOX (in words)” value is recorded as “robust inhibition” and the “time-dependent inhibition of hSMOX” value is given as “not observed”. Moreover, the IC50 in assay [7] (setting [9]) was 1900 nM. In addition, in assay [7] (listed as Chlorhexidine), the “inhibition of hSMOX (in words)” value is “inhibited” and the “time-dependent inhibition of hSMOX” value is “did not display time-dependent inhibition”.

(Values after article PMC9355956 (Communications Biology, 2022).)
